Measured values: the NIST ThermoML archive (doi:10.1021/je800899w)

Tests used:
[1] = refractive index (Na D-line) (dimensionless); settings: 298.15 K; 101.33 kPa; Liquid; Standard Abbe refractometry
[2] = 298.15 K, 101.33 kPa, Liquid; for viscosity: Capillary tube (Ostwald / Ubbelohde) method; for mass density: Vibrating tube method
[3] = refractive index (Na D-line) (dimensionless); xn = mol fraction of the nth substance listed; settings: 298.15 K, 101.3 kPa, Liquid, Standard Abbe refractometry
[4] = xn = mol fraction of the nth substance listed; settings: 298.15 K, 101.3 kPa, Liquid; for viscosity: Capillary tube (Ostwald / Ubbelohde) method

CCCCCCCCn1cc[n+](C)c1.O=S(=O)([N-]S(=O)(=O)C(F)(F)F)C(F)(F)F
Settings | mass density [kg/m3] | refractive index | viscosity [mPa·s]
[1] | – | 1.43298 | –
[2] | 1320.59 | – | 92.51

CCCCCCCCn1cc[n+](C)c1.O=S(=O)([N-]S(=O)(=O)C(F)(F)F)C(F)(F)F + CCO
Settings | mass density, [4] [kg/m3] | refractive index, [3] | viscosity, [4] [mPa·s]
x2 = 0.0959 | 1311.29 | 1.43164 | 71.28
x2 = 0.1162 | 1309.17 | 1.43133 | 67.63
x2 = 0.1935 | 1300.29 | 1.43016 | 55.53
x2 = 0.2269 | 1296.02 | 1.42965 | 51.54
x2 = 0.3304 | 1280.78 | 1.42766 | 39.23
x2 = 0.4164 | 1265.19 | 1.42549 | 29.89
x2 = 0.5412 | 1235.17 | 1.42143 | 19.92
x2 = 0.6012 | 1216.21 | 1.41886 | 15.86
x2 = 0.7033 | 1173.46 | 1.41319 | 10.25
x2 = 0.8067 | 1106.85 | 1.40447 | 5.83
x2 = 0.8967 | 1010.5 | 1.39142 | 3.079

CCCCCCCCn1cc[n+](C)c1.O=S(=O)([N-]S(=O)(=O)C(F)(F)F)C(F)(F)F + CCOC(C)=O
Settings | mass density, [4] [kg/m3] | refractive index, [3] | viscosity, [4] [mPa·s]
x2 = 0.0493 | 1314.93 | 1.43216 | 78.89
x2 = 0.1112 | 1307.34 | 1.43115 | 65.93
x2 = 0.1546 | 1301.55 | 1.43042 | 58.25
x2 = 0.2125 | 1293.1 | 1.4293 | 48.82
x2 = 0.3102 | 1276.6 | 1.42726 | 34.78
x2 = 0.404 | 1257.53 | 1.42453 | 24.15
x2 = 0.4779 | 1239.88 | 1.42219 | 17.54
x2 = 0.5967 | 1203.86 | 1.41721 | 9.795
x2 = 0.7035 | 1160.22 | 1.41123 | 5.384
x2 = 0.8233 | 1089.62 | 1.40097 | 2.284
x2 = 0.9016 | 1022.64 | 1.391 | 1.233

CCO [ethanol]
Settings | refractive index | viscosity [mPa·s]
[1] | 1.35928 | –
[2] | – | 1.054

CCOC(C)=O [ethyl acetate]
Settings | mass density [kg/m3] | refractive index | viscosity [mPa·s]
[1] | – | 1.36983 | –
[2] | 894.4 | – | 0.4256

CCOC(C)=O [ethyl acetate] + CCO
Settings | mass density, [4] [kg/m3] | refractive index, [3] | viscosity, [4] [mPa·s]
x1 = 0.0941 | 800.65 | 1.36064 | 0.855
x1 = 0.1919 | 815.09 | 1.36193 | 0.692
x1 = 0.2836 | 827.27 | 1.36309 | 0.619
x1 = 0.4044 | 841.69 | 1.36447 | 0.541
x1 = 0.5014 | 852.05 | 1.36548 | 0.505
x1 = 0.6085 | 862.53 | 1.36649 | 0.467
x1 = 0.6949 | 870.3 | 1.36724 | 0.444
x1 = 0.7929 | 878.51 | 1.36811 | 0.436
x1 = 0.8957 | 886.6 | 1.36895 | 0.424
